From ChEMBL document CHEMBL1151711, “Studies on quinones. Part 44: Novel angucyclinone N-heterocyclic analogues endowed with antitumoral activity” (Bioorg Med Chem, 2008) come the findings set out here.

Experiment [1] relates to MRC5. Nature of the experiment: Cytotoxicity against human MRC5 cells after 3 days by MTT assay. The experiment is classed as cell-based. As to conditions: MRC5, 72 h.
For experiment [2], the system named is AGS. Kind of experiment: Cytotoxicity against human AGS cells after 3 days by MTT assay. The experiment is classed as functional, cell-based. Conditions: 72 h. (Tetrazolium assays rely on reduction of a dye to a coloured formazan, in cell work by metabolically active cells.)
Experiment [3] deals with SK-MES-1. Kind of experiment: Cytotoxicity against human SK-MES-1 cells after 3 days by MTT assay. The experiment is classed as functional, cell-based. Conditions: SK-MES-1, 72 h.
Experiment [4] deals with J82. Nature of the experiment: Cytotoxicity against human J82 cells after 3 days by MTT assay. The experiment is classed as functional, cell-based. As to conditions: J82, 72 h.
Experiment [5] concerns HL-60. Kind of experiment: Cytotoxicity against human HL-60 cells after 3 days by MTT assay. The experiment is classed as functional, cell-based. Conditions: HL-60, 72 h.

For orientation: IC50 means the concentration that gives 50% inhibition. A low value points to greater potency. Turning to `O=C1c2cnc3c(c2C(=O)c2cccc(O)c21)C(=O)CCC3`, the IC50 in experiment [1] worked out at 11.3 µM; in experiment [2], 1.6 µM; in experiment [3], 3.7 µM; in experiment [4], 9.2 µM; in experiment [5], 5.6 µM.

On to `Cc1nc2c(c3c1C(=O)C=CC3=O)C(=O)CCC2`, for which the concentration for half-maximal inhibition (IC50) in experiment [1] was 20.5 µM; in experiment [2], 22 µM; in experiment [3], 3.5 µM; in experiment [4], 5.6 µM; in experiment [5] it was 46.5 µM.

For the compound `O=C1c2c(O)cccc2C(=O)c2c3c(cc(O)c21)CCCC3`, the IC50 was over 100 µM in experiment [1]; 41.6 µM in experiment [2]; 73.7 µM in experiment [3]; 69.9 µM in experiment [4]; over 100 µM in experiment [5].

Take `Cn1c(=O)c2c3c(cnc2n(C)c1=O)C(=O)c1c(O)cccc1C3=O`: the half-maximal inhibitory concentration (IC50) turned out to be 6.8 µM in experiment [1]; 5.9 µM in experiment [2]; 8.1 µM in experiment [3]; 9.2 µM in experiment [4]; 15.9 µM in experiment [5].

As to `CC1(C)CC(=O)c2c(ncc3c2C(=O)c2cccc(O)c2C3=O)C1`, the 50% inhibitory concentration (IC50) in experiment [1] is 6.5 µM; in experiment [2] it was 11.6 µM; in experiment [3], 3.6 µM; in experiment [4], 3.9 µM; in experiment [5], 2.3 µM.

With `Cc1nc2c(c3c1C(=O)c1ccccc1C3=O)C(=O)CCC2`, the concentration for half-maximal inhibition (IC50) in experiment [1] was 21.5 µM; in experiment [2], 9.5 µM; in experiment [3], 11.9 µM; in experiment [4] it was 7.7 µM; in experiment [5] it was 45.2 µM.

`Cc1cnc2c(c1)C(=O)c1c(cnc3c1C(=O)CCC3)C2=O`: the IC50 in experiment [1] amounted to 0.73 µM; in experiment [2], 1.2 µM; in experiment [3], 1.7 µM; in experiment [4] it was 1.8 µM; in experiment [5], 2.4 µM.

Consider `Cc1nc2c(c3c1C(=O)c1c(O)cccc1C3=O)C(=O)CCC2`, for which the half-inhibitory concentration (IC50) in experiment [1] is 17.3 µM; in experiment [2], 4.5 µM; in experiment [3] it was 10.2 µM; in experiment [4] it was 17.5 µM; in experiment [5], 23.9 µM.

In the case of `CC1(C)CC(=O)c2c(ncc3c2C(=O)C=CC3=O)C1`, the 50% inhibitory concentration (IC50) in experiment [1] is 39.9 µM; in experiment [2], 75.2 µM; in experiment [3], over 100 µM; in experiment [4], 95.3 µM; in experiment [5] it was 43.6 µM.

With `Cc1nc2c(c3c1C(=O)c1ccccc1C3=O)c(=O)n(C)c(=O)n2C`, the IC50 is over 100 µM in experiment [1]; 19.1 µM in experiment [2]; 5.2 µM in experiment [3]; 24.9 µM in experiment [4]; over 100 µM in experiment [5].

In the case of `O=C1C=CC(=O)c2c1cnc1c2C(=O)CCC1`, the IC50 in experiment [1] was 20.2 µM; in experiment [2] it was 19.4 µM; in experiment [3] it was 25.7 µM; in experiment [4], 38.8 µM; in experiment [5], 15.8 µM.

For the compound `O=C1c2ccccc2C(=O)c2c1cnc1c2C(=O)CCC1`, the IC50 is 41.3 µM in experiment [1]; 19 µM in experiment [2]; 51.6 µM in experiment [3]; 62.6 µM in experiment [4]; 73.2 µM in experiment [5].

For `Cc1nc2c(c3c1C(=O)c1ccccc1C3=O)C(=O)CC(C)(C)C2`, the IC50 was found to be 15.9 µM in experiment [1]; 4.5 µM in experiment [2]; 13.5 µM in experiment [3]; 18.9 µM in experiment [4]; 17.5 µM in experiment [5].

Regarding `Cn1c(=O)c2c3c(cnc2n(C)c1=O)C(=O)c1ccccc1C3=O`, the IC50 in experiment [1] was 12.6 µM; in experiment [2], 3.5 µM; in experiment [3] it was 8.9 µM; in experiment [4], 8.7 µM; in experiment [5], 20.4 µM.

For `Cc1nc2c(c3c1C(=O)c1c(O)cccc1C3=O)c(=O)n(C)c(=O)n2C`, the half-maximal inhibitory concentration (IC50) in experiment [1] is over 100 µM; in experiment [2], 70 µM; in experiment [3] it was over 100 µM; in experiment [4], over 100 µM; in experiment [5], over 100 µM.

As to `O=C1c2cnc3c(c2C(=O)c2cccc(O)c21)CCCC3`, the IC50 in experiment [1] stood at 63.6 µM; in experiment [2] it was 36.8 µM; in experiment [3], 36.8 µM; in experiment [4] it was 20.5 µM; in experiment [5], 45.8 µM.

Consider `Cc1nc2c(c3c1C(=O)C=CC3=O)c(=O)n(C)c(=O)n2C`, for which the IC50 was 67.1 µM in experiment [1]; 50.3 µM in experiment [2]; 70.2 µM in experiment [3]; 72.4 µM in experiment [4]; 26.3 µM in experiment [5].

For the compound `Cn1c(=O)c2c3c(cnc2n(C)c1=O)C(=O)C=CC3=O`, the IC50 turned out to be 72.8 µM in experiment [1]; 82.1 µM in experiment [2]; 67.5 µM in experiment [3]; 78.6 µM in experiment [4]; 31.5 µM in experiment [5].

Take `Cc1nc2c(c3c1C(=O)c1c(O)cccc1C3=O)C(=O)CC(C)(C)C2`: the IC50 in experiment [1] was 5.5 µM; in experiment [2], 7.4 µM; in experiment [3], 4.6 µM; in experiment [4] it was 15.7 µM; in experiment [5], 11.8 µM.
